Laboratory results: paper PMC10880893, “Structures of the holoenzyme TglHI required for 3-thiaglutamate biosynthesis” (Structure (London, England : 1993), 2023)
“Also recorded” adds a separate entry of the source.

Assays:
[1] = tested on: TglHI; assay type: biochemical, Pseudomonas syringae pv. maculicola ES4326
Protocol: TglHI protein and H2O2 (or EDTA) were initially incubated together for 10 min, and then protein was purified by size exclusion chromatography to remove excess H2O2 (or EDTA). The reaction between the H2O2 (EDTA)-treated TglHI and minimum substrate analog of TglA-Cys, β-NAD^+, and FDH was then monitored for the levels of NADH.
(A) In vitro activity assay of the modification of the minimum substrate analog of TglA-Cys by TglHI with treatment of H2O2 in the presence of formate dehydrogenase (FDH) and β-NAD+. NADH formation was […]
(B) In vitro activity assay of the modification of the minimum substrate analog of TglA-Cys by TglHI with […]
treatment of EDTA (5 mM, 10 mM, 20 mM).

[2] = target: TglHI holoenzyme (Pseudomonas syringae pv. maculicola ES4326); assay: ITC
[3] = Solubility on (co-)expression in E. coli, SDS-PAGE; assay type: physicochemical; conditions: expression in E. coli BL21, SDS-PAGE
Protocol: The tglH (NCBI accession No. WP_007252215.1) and tglI (NCBI accession No. WP_007252216.1) genes from Pseudomonas syringae pv. maculicola (P. syringae) ES4326 were codon-optimized for expression in E. coli (the optimized sequences are provided in KRT) and subcloned into the pRSFDuet-1 vector. E. coli BL21 (DE3) cells containing the tglHI-pRSFDuet-1 plasmid were grown in Luria broth (LB) medium at 37 °C and 220 rpm to an optical density at 600 nm (OD600) of 0.6. Fe-containing TglHI proteins were obtained by the addition of 1 mM (NH4)2Fe(SO4)2 in LB medium. Subsequently, cultures were induced at 16 °C with the addition of isopropyl β-D-thiogalactoside (IPTG) at a final concentration of 0.2 mM. […] After cell lysis, lysates were centrifuged at 18000 rpm for 30 min to obtain the supernatant containing the target protein. […] The purity of the purified proteins was assessed using sodium dodecyl sulfate‒polyacrylamide gel electrophoresis (SDS‒PAGE) and they were flash-frozen with liquid nitrogen for subsequent crystallization and biochemical analysis. […]
(B) The tglH and tglI genes were inserted into the pRSF-DuET-1 vector for co-expression, and the complexes were purified through nickel affinity columns. […] The proteins were then eluted and analyzed by SDS-PAGE. […]

Molecule: O=C(O)CN(CCN(CC(=O)O)CC(=O)O)CC(=O)O [EDTA]
- TglHI activity after treatment with EDTA ([1]; EDTA 5 mM, 10 mM, 20 mM, 10 min incubation, then size exclusion chromatography): merely attenuated the enzymatic activity of TglHI instead of abolishing the activity
- effect of higher EDTA concentrations on TglHI ([1]; higher concentrations than 5, 10, 20 mM): precipitation

Molecule: OO [H2O2]
- TglHI activity after pretreatment with H2O2 ([1]; 10 min incubation, then size exclusion chromatography, NADH at 340 nm): background; also recorded: loss of TglHI activity

Molecule: TglA-Cys analog containing the C-terminal 19 amino acids (peptide)
- Kd [2]: 8.5 µM

B1: TglI: recruitment subunit with RRE domain (protein)
chain: MEAEQVWKLWRRVLRDERLQAQLFSATDATHWLSGFSESESKILSVYAQQFDRVKWFVENYQFRLVNSFLNALETGAPLSLRALLHINVDLNAQSKAFLRDRQWRDYGPQVYTYCEDVLGFLAEADELQGYPEILDLMRLERESVRLYRGLVDPESLPADNRYQRTSMARLYETRFALSGWLRQKDQLGLTRLPESTEHVLIYLPTLQARHKFTLINAQAARLYNCLEQPQSAAGLFMLINSDSASVPGSADLALLDRLEQLNAIRKPL
- solubility of protein / complex [3]: insoluble when expressed alone and only soluble when co-expressed with TglH

B2: TglH: Fe-dependent DUF692 catalytic subunit (protein)
chain: MPDFVKPAPIGVGIQYNPEILDWFPFEDIQVDILEILLDNIMAPMDGPQIIKPSAQAMIERLGQKFTLLAHSNYGCDFGFSALEETAAVQRHVPLAKMLNSPWVANHCFYGDQSWLDIWSSPIQFSAAEVARCADRAQSLQTLYGMPLAHENAAYYLECPGAEMREAEFLARLVQRSGTFLHLDLHNIYTNHLNLKGFDLKDYMDTLPLDKVISVHLAGGSWHGGLYHDWHDACVPEPVWDLYEDLLSRAQPSAVILEYQGQAHHAQTRIMDASDESMIVRDVQRAQAIWSRYNRHPQERQYGS
- solubility of protein / complex [3]: expressed partially in soluble form
